Like-named read-outs stand apart in the source and are kept apart here. Values belong to the molecule of their own block, whether it stands above or below them.
Columns and labels:
Assay type in all cases: cell-based
[1] = tested on: OCI-LY10 cells; experiment: CellTiter-Glo cell viability assay, four days (Example 1A); conditions: for EC50: Homo sapiens; for growth of cell line: OCI-LY10, single agent
Protocol: (§1) In vitro anti-proliferative activity of agents was assessed using CellTiter-Glo™ Assay (Promega), which quantifies cellular ATP level. Test compounds were dissolved in DMSO to prepare 10 mM stock solutions. […] For drug combination studies, a two or three fold horizontal serial dilution pattern was used for Compound B and combined with Idelalisib using a two, three, or four fold vertical serial dilution pattern. […] The final DMSO concentration in the test media was 0.2%. Each combination used replicates of four plates to generate sufficient data for evaluation of synergy scores. […] The assay growth medium for all lines was RPMI supplemented with 20% FBS and […] penicillin-streptomycin. Seeding density was optimized for growth rate over 96 hours for each cell line and was between 10,000-30,000 cells per well of 96 well plates. After four days incubation with agents at 37° C./5% CO2, the CellTiter-Glo™ assay was performed following the manufacturer's protocol. Relative luminescence units were quantified using a Biotek Synergy luminometer.
(§2) Data from a plate was excluded if either Z′<0.5 or the growth of the cell lines was less than one doubling in the four day assay period. Z′ was calculated using the formula: Z′=[1−((3(σstau+σDMSO))/(|μDMSO−μstau|)] where σstau and σDMSO are the standard deviation of the 100% inhibited staurosporine and 0% inhibited DMSO control wells, respectively. μDMSO and μstau are the mean of the […] control wells, respectively. The raw Cell Titer Glo signal was normalized according to the following formula: [(raw value)−(100% inhibited staurosporine control)]/[(DMSO control value)−(100% inhibited staurosporine control)].
(§3) EC50 was determined using GraphPad Prism or Dose Response software by fitting the data to a four parameters variable slope model. […] For combination studies, the EC50 at each test article concentration was determined from graphs of the EC50 of one compound at a fixed dose of second compound. The EC50 shift was calculated by taking the ratio of the EC50 of the single agent by the EC50 at the maximum dose of the second agent.
(§4) Synergy was analyzed using the MacSynergy II program, which calculates a theoretical additive value for the drug combination that is based on the values generated by each drug alone using the Bliss Independence mathematical model. The Bliss independence model assumes that each drug acts independently. The theoretical additive effect for each compound is calculated and then subtracted from the actual effect. Synergy is defined by greater than expected effects while antagonism is defined by less than expected effects. In this example, a synergy volume greater than 50 was considered significant. The EC50 values determined in drug combination studies represent a single experiment run in quadruplicate and therefore may differ slightly from the single agent EC50 values.

[2] = tested on: TMD-8 cells; experiment: as above; conditions: for EC50: Homo sapiens; for growth of cell line: single agent
Protocol: as §1, §2, §3, §4

[3] = tested on: pAKT (Ser 473); experiment: TMD-8 Western Blots; conditions: for pAKT (Ser 473), Western Blot: TMD-8
Protocol: (§5) Western Blot samples were prepared by lysing 10^6 cells for 30 minutes in 150 μL ice-cold lysis buffer. Protease Inhibitor Cocktail (Roche Diagnostics Corp), and phosphatase inhibitor sets 1 and 2 (EMD Millipore) were also added to the lysis buffer (Cell Signaling Technology). Cells were centrifuged at 12.5 g for 10 minutes at 4° C.; supernatant was collected and transferred to new tube. Sample buffer was added to each lysate, and then boiled at 99° C. for 5 minutes. Protein was loaded into an SDS-PAGE gel and run for 2 h at 125V. After electrophoresis, gel was transferred to Immobilon-F membrane using the X Cell Blot. The membrane was then blocked for 1 h at room temperature in blocking buffer and incubated overnight with primary antibodies diluted in a blocking buffer. The following day, the membranes were washed 3× (5 min each) with TBST; secondary antibodies were added and membrane was incubated for 45 minutes at room temperature, followed by 3×TBST (5 min each). Blots were read using Licor Imager. Primary antibodies included p-AKT (S473), p-BTK (Y223), BTK, p-ERK (T202/Y204), ERK, and actin (Cell Signaling Technologies), and secondary antibodies included IRDye-conjugated anti-mouse and anti-rabbit antibodies; LI-COR. Band intensity was measured using LI-COR imager and LI-COR Odyssey software.

[4] = tested on: pBTK (Y223); experiment: TMD-8 Western Blots; conditions: for pBTK (Y223), Western Blot: TMD-8
Protocol: as §5

[5] = tested on: pErk1/2 (T202/Y204); experiment: TMD-8 Western Blots; conditions: for pErk1/2 (T202/Y204), Western Blot: TMD-8
Protocol: as §5

[6] = OCI-Ly10, OCI-LY10, bound stated for three ABC-DLBCL cell lines, read-out: EC50, growth inhibition, single agent
[7] = TMD8, TMD-8, bound stated for three ABC-DLBCL cell lines, read-out: EC50, growth inhibition, single agent
[8] = Homo sapiens, TMD8, FIG. 2E, single agent, idelalisib 420 nM, Compound B 320 nM, time not stated, read-out: inhibition to p-AKT (S473)
[9] = Homo sapiens, TMD8, FIG. 2E, single agent, idelalisib 420 nM, Compound B 320 nM, time not stated, read-out: inhibition to p-ERK (T202/Y204)

EC50 [1, 6]: < 26 nM
EC50 ([1]; OCI-Ly10, OCI-LY-10, Idelalisib 0 nM, read-out: EC50 of Compound B in Combination with Idelalisib): 6 nM
EC50 ([1]; OCI-Ly10, OCI-LY-10, Idelalisib 156 nM, read-out: EC50 of Compound B in Combination with Idelalisib): 3 nM
EC50 ([1]; OCI-Ly10, OCI-LY-10, Idelalisib 625 nM, read-out: EC50 of Compound B in Combination with Idelalisib): 3 nM
Compound B EC50 shift (fold) ([1]; OCI-LY-10, single agent EC50 / EC50 at maximum dose of Idelalisib): 2 fold
Compound: CC#CC(=O)N1CC[C@@H](n2c(=O)n(-c3ccc(Oc4ccccc4)cc3)c3c(N)ncnc32)C1 [Compound B, 6-amino-9-[(3R)-1-(2-butynoyl)-3-pyrrolidinyl]-7-(4-phenoxyphenyl)-7,9-dihydro-8H-purin-8-one]
growth of cell line [1]: inhibited the growth
EC50 ([2]; TMD8, TMD-8, Idelalisib 0 nM, read-out: EC50 of Compound B in Combination with Idelalisib): 11 nM
EC50 ([2]; TMD8, TMD-8, Idelalisib 156 nM, read-out: EC50 of Compound B in Combination with Idelalisib): 5 nM
EC50 ([2]; TMD8, TMD-8, Idelalisib 625 nM, read-out: EC50 of Compound B in Combination with Idelalisib): 4 nM
EC50 [2, 7]: < 26 nM
growth of cell line ([2]; TMD-8): inhibited the growth
Compound B EC50 shift (fold) ([2]; TMD-8, single agent EC50 / EC50 at maximum dose of Idelalisib): 2.75 fold
inhibition at 0.32 µM [3, 8]: 46%
pAKT (Ser 473), Western Blot ([3]; 2 hr, DMSO 0.45): 0.24 normalized integrated intensity
pAKT (Ser 473), Western Blot ([3]; 24 hr, DMSO 0.54): 0.35 normalized integrated intensity
inhibition at 0.32 µM ([4]; Homo sapiens, TMD8, FIG. 2E, single agent, Compound B 320 nM, time not stated, read-out: inhibition of p-BTK (Y223)): 59%
pBTK (Y223), Western Blot ([4]; 2 hr, DMSO 0.36): 0.16 normalized integrated intensity
pBTK (Y223), Western Blot ([4]; 24 hr, DMSO 0.33): 0.14 normalized integrated intensity
inhibition at 0.32 µM [5, 9]: 48%
pErk1/2 (T202/Y204), Western Blot ([5]; 2 hr, DMSO 1.09): 0.47 normalized integrated intensity
pErk1/2 (T202/Y204), Western Blot ([5]; 24 hr, DMSO 1.49): 0.93 normalized integrated intensity

Compound: CCC(Nc1ncnc2[nH]cnc12)c1nc2cccc(F)c2c(=O)n1-c1ccccc1 (stereo not drawn) [Idelalisib, 2-(1-((9H-Purin-6-yl)amino)propyl)-5-fluoro-3-phenylquinazolin-4(3H)-one]
EC50 ([1]; OCI-Ly10, OCI-LY10, addition of Compound B at 6 nM, read-out: EC50 of idelalisib): 24 nM
EC50 ([1]; OCI-Ly10, OCI-LY10, addition of Compound B at 12 nM, read-out: EC50 of idelalisib): 19 nM
EC50 ([1]; OCI-Ly10, OCI-LY10, addition of Compound B at 25 nM, read-out: EC50 of idelalisib): 13 nM
EC50 [1, 6]: < 210 nM
EC50 ([1]; OCI-Ly10, OCI-LY10, without Compound B, read-out: EC50 of idelalisib): 122 nM
EC50 ([1]; OCI-Ly10, OCI-LY-10, Compound B 0 nM, read-out: EC50 of Idelalisib when Combined with Compound B): 440 nM
EC50 ([1]; OCI-Ly10, OCI-LY-10, Compound B 5 nM, read-out: EC50 of Idelalisib when Combined with Compound B): 38 nM
EC50 ([1]; OCI-Ly10, OCI-LY-10, Compound B 15 nM, read-out: EC50 of Idelalisib when Combined with Compound B): 22 nM
EC50 ([1]; OCI-Ly10, OCI-LY-10, Compound B 45 nM, read-out: EC50 of Idelalisib when Combined with Compound B): 5 nM
growth of cell line [1]: inhibited the growth
Idelalisib EC50 shift (fold) ([1]; OCI-LY-10, single agent EC50 / EC50 at maximum dose of Compound B): 88 fold
EC50 ([2]; TMD8, TMD8, addition of Compound B at 6 nM, read-out: EC50 of idelalisib): 108 nM
EC50 ([2]; TMD8, TMD8, addition of Compound B at 12 nM, read-out: EC50 of idelalisib): 34 nM
EC50 ([2]; TMD8, TMD8, addition of Compound B at 25 nM, read-out: EC50 of idelalisib): 24 nM
EC50 ([2]; TMD8, TMD8, without Compound B, read-out: EC50 of idelalisib): 254 nM
EC50 ([2]; TMD8, TMD-8, Compound B 0 nM, read-out: EC50 of Idelalisib when Combined with Compound B): 254 nM
EC50 ([2]; TMD8, TMD-8, Compound B 5 nM, read-out: EC50 of Idelalisib when Combined with Compound B): 130 nM
EC50 ([2]; TMD8, TMD-8, Compound B 15 nM, read-out: EC50 of Idelalisib when Combined with Compound B): 32 nM
EC50 ([2]; TMD8, TMD-8, Compound B 45 nM, read-out: EC50 of Idelalisib when Combined with Compound B): 24 nM
EC50 [2, 7]: < 210 nM
growth of cell line ([2]; TMD-8): inhibited the growth
Idelalisib EC50 shift (fold) ([2]; TMD-8, single agent EC50 / EC50 at maximum dose of Compound B): 10.6 fold
inhibition at 0.42 µM [3, 8]: 58%
pAKT (Ser 473), Western Blot ([3]; 2 hr, DMSO 0.45): 0.19 normalized integrated intensity
pAKT (Ser 473), Western Blot ([3]; 24 hr, DMSO 0.54): 0.12 normalized integrated intensity
pBTK (Y223), Western Blot ([4]; 2 hr, DMSO 0.36): 0.39 normalized integrated intensity
pBTK (Y223), Western Blot ([4]; 24 hr, DMSO 0.33): 0.27 normalized integrated intensity
inhibition at 0.42 µM [5, 9]: 71%
pErk1/2 (T202/Y204), Western Blot ([5]; 2 hr, DMSO 1.09): 0.40 normalized integrated intensity
pErk1/2 (T202/Y204), Western Blot ([5]; 24 hr, DMSO 1.49): 0.55 normalized integrated intensity

— patent publication US20180353512A1, “COMBINATION THERAPIES FOR TREATING B-CELL MALIGNANCIES” (GILEAD SCIENCES, INC., priority 2015, published 2018)
